Source: publication PMC6149825, “PTP1B Inhibitors from the Entomogenous Fungi Isaria fumosorosea” (Molecules : A Journal of Synthetic Chemistry and Natural …, 2017)
Read-outs that look alike come from different tables or passages of the source.

Molecular target: T1, PTP1B (Homo sapiens, UniProt P18031)
T1 sequence (P18031 1-435): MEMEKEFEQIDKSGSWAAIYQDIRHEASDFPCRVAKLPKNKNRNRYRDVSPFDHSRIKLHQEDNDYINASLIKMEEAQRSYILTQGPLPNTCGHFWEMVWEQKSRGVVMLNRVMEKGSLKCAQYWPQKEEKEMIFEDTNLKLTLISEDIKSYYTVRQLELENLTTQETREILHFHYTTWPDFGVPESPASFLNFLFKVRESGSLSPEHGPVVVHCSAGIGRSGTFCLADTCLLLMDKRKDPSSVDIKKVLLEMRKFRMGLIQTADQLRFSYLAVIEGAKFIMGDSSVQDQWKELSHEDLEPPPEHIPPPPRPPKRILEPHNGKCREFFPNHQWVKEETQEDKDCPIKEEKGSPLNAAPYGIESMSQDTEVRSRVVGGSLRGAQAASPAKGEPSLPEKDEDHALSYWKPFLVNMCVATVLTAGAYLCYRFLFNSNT
Assay: PTP1B inhibition assay (hydrolysis of p-nitrophenyl phosphate, 96-well plate)
Description: PTP1B activity was measured as the rate of hydrolysis of p-nitrophenyl phosphate (pNPP) in a 96-well microtiter plate format [13]. […] Each experiment was performed in triplicate, and IC50 data were derived from three independent experiments.

| Compound | IC50 (read-out: PTP1B inhibitory activity IC50, in vitro, pNPP substrate, triplicate, three independent experiments) | IC50 |
| --- | --- | --- |
| 2-carboxymethyl-4-(3′-hydroxybutyl)furan [Compound 5] | > 1 mM |  |
| CCC(C)CC(C)C=C(C)C=CC=CC=C(C)C(O)=C1C(=O)NC(Cc2ccc(O)cc2)C1=O (centres unmarked) [Compound 1, fumosorinone A] |  | 0.00324 ± 0.00037 mM |
| C[C@@H]1CCC(=O)C[C@H](O)[C@@H](O)CC(=O)O1 [Compound 2, Cepharosporolides C] |  | > 1 mM |
| C[C@@H]1CC[C@]2(C[C@@H]3OC(=O)C[C@@H]3O2)O1 [Compound 3, Cepharosporolides E] |  | > 1 mM |
| CC1CCC2(CC3OC(=O)CC3O2)O1 (centres unmarked) [Compound 4, Cepharosporolides F] |  | > 1 mM |
